Reference: patent US20090197853A1, “METHODS AND COMPOSITIONS OF TREATING CANCER” (priority 2005, published 2009)

Experiments:
[1] = test system: PC3 prostate cancer cells; assay: Cell viability by propidium iodide exclusion, PC3; type: cell-based
Method: Methods: Cellular Viability—Cell viability was determined by using propidium iodide (PI) flow cytometric analysis. Cells from plateau phase cultures grown in T-25 flasks were harvested as described above, except that cells present in the growth medium and wash solution were isolated by centrifugation and included in the analysis. Cells were resuspended in 1 mL PBS, an aliquot of 3×10^5 cells transferred to a 4 mL tube, and the cells isolated by centrifugation. Cell pellets were resuspended in PBS supplemented with 2 μg/mL propidium iodide (Sigma), incubated for 5 minutes at ambient temperature, and subjected to flow cytometric analysis.

PC3 cells = assay: Proliferation, PC3; type: cell-based
Method: (§1) Methods: The proliferation of exponential phase cultures was assessed by colorimetric assay. In brief, 2×10^5 suspension cells per well were seeded on 96-well V-bottom microtiter plates. Stock solutions of control vehicle, MGd or Zn(OAc)2 in medium were added and plates were incubated at 37° C. under a 5% CO2/95% air atmosphere. After 24 hours, medium was replaced with fresh medium. After 2 additional days, medium was exchanged with fresh medium (150 μL/well) supplemented with 3-(4,5-dimethylthiazol-2-yl)-2,5-diphenyltetrazolium bromide (MTT, 0.5 mg/mL, Sigma Biochemical, St. Louis, Mo.). Plates were incubated at 37° C. and viable cells measured.

Ramos cells [2] = assay: Reactive oxygen species (DCFA to DCF), Ramos; type: cell-based; details: single agents
Method: Methods: Reactive oxygen species were measured in live cells as intracellular peroxides by monitoring the oxidation of 2′,7′-dichlorofluorescin-diacetate (DCFA) to 2′,7′-dichlorofluorescein (DCF) (Molecular Probes). Cells (1×10^6 per mL) were incubated in a solution of 1 μg per mL DCFA in 0.5% BSA in HBSS for 15 minutes at 37° C. Two mL additional 0.5% BSA in HBSS was added, cells were isolated by centrifugation, and the pellet re-suspended in a solution of 50 μg/mL 7-aminoactinomycin D (7-AAD) in 0.5% BSA in HBSS. Cell suspensions were incubated at ambient temperature for 2 to 3 minutes, and stored on ice until analysis. The fluorescent intensity in live (i.e., 7-AAD impermeable) cells was analyzed by flow cytometry.

[3] = test system: Ramos, Raji, DB, DHL-4, HF-1, Jurkat, K562 and HL-60 cell lines; assay: Proliferation of hematologic cell lines; type: cell-based; details: for Effect on proliferation: low concentrations of zinc or MGd alone
Method: as §1, with “Cellular Proliferation—The” for “Methods: The”

[4] = test system: acute promyelocytic leukemia line (HL60); details: 50 to 100 μM zinc
Method: as §1, with “Cellular Proliferation—The” for “Methods: The”

A549 cells = assay: Cell viability by propidium iodide exclusion, A549
Method: Methods: Cellular Viability. Cell viability was determined by using propidium iodide (PI) flow cytometric analysis. Cells from plateau phase cultures grown in T-25 flasks were harvested as described above, except that cells present in the growth medium and wash solution were isolated by centrifugation and included in the analysis. Cells were resuspended in 1 mL PBS, an aliquot of 3×10^5 cells transferred to a 4 mL tube, and the cells isolated by centrifugation. Cell pellets were resuspended in PBS supplemented with 2 μg/mL propidium iodide (Sigma), incubated for 5 minutes at ambient temperature, and subjected to flow cytometric analysis. Flow cytometry was performed on a FACSCalibur instrument and data were analyzed using the CellQuest Pro software package (BD Biosciences).

[5] = test system: A549 human lung cancer cells; assay: Gene expression profiling on Affymetrix U133A microarrays, plateau phase A549 cultures; type: cell-based; details: 50 μM MGd
Method: Methods: A549 human lung cancer cells (6.5×10^5 cells per T-162 flask in 45 mL complete RPMI 1640 medium) were seeded 10 days prior to treatment of non-cycling plateau phase cultures with MGd. At 4, 12, or 24 hours prior to RNA isolation, MGd (50 μM final concentration) or control (5% mannitol) solution was added to the cultures. Each time course experiment was performed in triplicate. After incubation, all cultures were washed once with PBS and total RNA was subjected to analysis on Affymetrix U133A microarrays, designed to interrogate the relative abundance of over 15,000 human genes.
We used Microarray Suite version 5.0 software (Affymetrix) to generate raw gene expression scores and normalized the relative hybridization signal from each experiment. All gene expression scores were set to a minimum value of one hundred in order to minimize noise associated with less robust measurements of rare transcripts. The permutation-based significance analysis of microarrays (SAM) was used to determine genes differentially expressed in response to MGd treatment compared to the control 5% mannitol-treated cultures (0.125% final) at each time point. We report all genes at least 2-fold differentially expressed with a less than a 1% False Discovery Rate (FDR) in response to MGd treatment (FIG. 10).

[6] = test system: metallothionein gene family members and ZnT1; assay: Northern blot analysis, PC3 cultures; type: cell-based; details: PC3, 4 hours
Method: (§2) Methods: Northern Blot Analysis—Plateau phase cultures of A549 cells were prepared as described above, except that T-25 flasks were used, and the number of cells initially plated scaled accordingly. Cultures were treated with 50 μM MGd, 5 μM Gd(OAc)3 or 5% mannitol for 4 hours, whereupon cultures were washed twice with PBS and RNA harvested as above. Alternatively, 7-day plateau phase A549 or PC3 cultures were treated with 50 μM MGd, 50-100 μM Zn(OAc)2, 50 μM CdCl2 or 5% mannitol for 24 hours (A549) or 4 hours (PC3) prior to washing and RNA analysis. Exponential phase Ramos cultures were treated for 6 hours. Northern blots were conducted and analyzed. Radio labeled metallothionein probe, designed to bind to a 113-bp region of 3′-UTR sequences from multiple metallothionein gene family members, was generated using 5′-[…]-3′ (forward) and 5′-[…]-3′ (reverse) PCR primers and the NEBlot kit (New England Biolabs, Inc.). Radio labeled ZnT1 probe was generated in a similar fashion using 5′-[…]-3′ (forward) and 5′-[…]-3′ (reverse) primers.

[7] = test system: metallothionein gene family members and ZnT1; assay: Northern blot analysis, Ramos cultures; type: cell-based; details: 6 hours
Method: as §2

Ramos cells [8] = assay: Gene expression profiling on Human Genome U133 Plus 2.0 Arrays, Ramos cultures; type: cell-based; details: 4 hours
Method: Methods: Gene Expression Profiling—MGd (10 μM), Zn(OAc)2 (25 or 50 μM, the combinations, or control (5% mannitol) solution were added to Ramos cultures. Each treatment was performed in triplicate. After 4 hours of incubation, all cultures were washed twice with 0.5% BSA in HBSS and total RNA was isolated and subjected to analysis on Human Genome U133 Plus 2.0 Arrays (Affymetrix, Santa Clara, Calif.). Microarray Suite version 5.0 software (Affymetrix) was used to generate raw gene expression scores and normalize the relative hybridization signal from each experiment. All gene expression scores were set to a minimum value of fifty in order to minimize noise associated with less robust measurements of rare transcripts. Both the parametric Student's t-test and the permutation-based significance analysis of microarrays (SAM) were used to determine genes differentially expressed in treatment versus control groups.

**Q.** Which “Increased cell death (propidium iodide exclusion)” value ([1]; PC3, within 48 hr, at 100 μM zinc) does the source give for CC(=O)[O-].CC(=O)[O-].[Zn+2] [Zn(OAc)2, Zinc acetate] here?
**A.** 2 fold

**Q.** What about the Cell viability ([1]; plateau phase PC3, after 24 hr) of the same compound?
**A.** little effect on cell viability

**Q.** What about the PC3 cell proliferation (PC3 cells) of the same compound?
**A.** inhibited

**Q.** What about the DCF signal (Ramos cells [2]) of the same compound?
**A.** increased DCF signal

**Q.** And the Proliferation ([3]; 50 to 100 μM zinc, four additional B-cell lines, K562, Jurkat)?
**A.** inhibited the proliferation

**Q.** What about the Effect on proliferation ([3]; all cell lines) of the same compound?
**A.** no significant effect

**Q.** And the Proliferation [4]?
**A.** but not in an acute promyelocytic leukemia line (HL60)

**Q.** And the “Cellular viability (propidium iodide exclusion)” value (A549 cells; A549, 24 hours, Zn(OAc)2 100 μM, CdCl2 50 μM, MGd 50 μM)?
**A.** no effect on cellular viability

**Q.** Which results are given for CC(=O)[O-].CC(=O)[O-].CCc1c(CC)c2cc3nc(cnc4cc(OCCOCCOCCOC)c(OCCOCCOCCOC)cc4ncc4nc(cc1[n-]2)C(CCCO)=C4C)C(C)=C3CCCO.O.[Gd+3] [MGd, Motexafin gadolinium]?
**A.** hbc647 transcript (likely 3′-UTR of ZnT1) ([5]; all three time points): up-regulated; Metallothionein isoform transcripts (microarray) ([5]; all time points): up-regulation; Expression of metallothionein family members and ZnT1 [6]: increased; Expression of metallothionein family members and ZnT1 [7]: increased; Effect of MGd on the effect of zinc on proliferation (PC3 cells; PC3): enhanced the effect of zinc; DCF signal (Ramos cells [2]): increased DCF signal; MTF-1 regulated genes incl. metallothionein and zinc transporter family transcripts (Ramos cells [8]): up-regulation of MTF-1 regulated genes; Effect of MGd on sensitivity to zinc (proliferation) ([3]; all cell lines): increased; Effect of MGd co-treatment on the inhibition of proliferation by zinc ([3]; all lines except HL60): potentiated the inhibition by zinc; Effect on proliferation ([3]; all cell lines): no significant effect; Effect of MGd on the cytotoxicity of CdCl2 (A549 cells; A549 cells, FIG. 2A): attenuated
